# Data from patent US12116357B2, “Heteroaryl-triazole and heteroaryl-tetrazole compounds as pesticides” (Bayer Aktiengesellschaft, priority 2018, dated 2024).
# Assays:
# Type in all cases: in vivo
# Ctenocephalides felis [1] = experiment: Ctenocephalides felis oral test; conditions: 48 h, 100 ppm in cattle blood, after 2 days
# Protocol: (§1) • Solvent: dimethyl sulfoxide
# To produce a suitable preparation of active compound, 10 mg of active compound are dissolved in 0.5 ml solvent, and the concentrate is diluted with cattle blood to the desired concentration.
# Approximately 20 adult unfed cat fleas (Ctenocephalides felis) are placed in flea chambers. The blood chamber, sealed with parafilm on the bottom, are filled with cattle blood supplied with compound solution and placed on the gauze covered top of the flea chamber, so that the fleas are able to suck the blood. The blood chamber is heated to 37° C. whereas the flea chamber is kept at room temperature.
# After 2 days mortality in % is determined. 100% means all the fleas have been killed; 0% means none of the fleas have been killed.
# Myzus persicae [2] = experiment: Myzus persicae oral test; conditions: 120 h
# Protocol: • Solvent: 100 parts by weight acetone
# To produce a suitable preparation of active compound, 1 part by weight of active compound is mixed with the stated amount of solvent, and the concentrate is diluted with water to the desired concentration. 50 μl compound solution is filled in microtiter plates and 150 μl IPL41 insect medium (33%+15% sugar) is added to obtain a total volume of 200 μl per well. Afterwards the plates are sealed with parafilm through which a mixed population of the green peach aphid (Myzus persicae) can suck on the compound preparation.
# (§2) After 5 days mortality in % is determined. 100% means all aphids have been killed and 0% means none of the aphids have been killed.
# Boophilus microplus = Boophilus microplus injection test; conditions: Rhipicephalus microplus, 168 h, 20 μg/animal, egg deposition after 7 days, read-out: efficacy (infertile eggs)
# Protocol: as §1
# To produce a suitable preparation of active compound, 10 mg of active compound are dissolved in 0.5 ml solvent, and the concentrate is diluted with solvent to the desired concentration.
# Five adult engorged female ticks (Boophilus microplus) are injected with 1 μl compound solution into the abdomen. The ticks are transferred into replica plates and incubated in a climate chamber.
# After 7 days egg deposition of fertile eggs is monitored. Eggs where fertility is not visible are stored in a climate chamber till hatching after about 42 days. An efficacy of 100% means all eggs are infertile; 0% means all eggs are fertile.
# Nezara viridula = Nezara viridula spray test; conditions: 96 h
# Protocol: (§3) • Solvent: 78.0 parts by weight of acetone • 1.5 parts by weight of dimethylformamide • Emulsifier: alkylarylpolyglycol ether
# (§4) To produce a suitable preparation of active compound, 1 part by weight of active compound is mixed with the stated amount of solvent, and the concentrate is diluted with water, containing an emulsifier concentration of 1000 ppm, to the desired concentration. Further test concentrations are prepared by dilution with emulsifier containing water.
# Barley plants (Hordeum vulgare) infested with larvae of the southern green stink bug (Nezara viridula) are sprayed with a test solution containing the desired concentration of the active ingredient.
# After 4 days mortality in % is determined. 100% means all the stink bugs have been killed; 0% means none of the stink bugs have been killed.
# Spodoptera frugiperda = Spodoptera frugiperda spray test; conditions: 168 h
# Protocol: (§5) • Solvent: 78.0 parts by weight acetone • 1.5 parts by weight dimethylformamide • Emulsifier: alkylarylpolyglycol ether
# as §4, with “solvents” for “solvent,”, “and” for “and the concentrate”
# Maize (Zea mays) leaf sections are sprayed with a preparation of the active ingredient of the desired concentration. Once dry, the leaf sections are infested with fall armyworm larvae (Spodoptera frugiperda).
# After 7 days mortality in % is determined. 100% means all caterpillars have been killed and 0% means none of the caterpillars have been killed.
# Phaedon cochleariae = Phaedon cochleariae spray test; conditions: 168 h, after 7 days
# Protocol: as §3
# as §4, with “solvents” for “solvent,”, “and” for “and the concentrate”
# Chinese cabbage (Brassica pekinensis) leaf disks are sprayed with a preparation of the active ingredient of the desired concentration. Once dry, the leaf disks are infested with mustard beetle larvae (Phaedon cochleariae).
# After 7 days mortality in % is determined. 100% means all beetle larvae have been killed and 0% means none of the beetle larvae have been killed.
# Rhipicephalus sanguineus = Rhipicephalus sanguineus in-vitro contact test, adult brown dog ticks
# Protocol: (§6) 9 mg compound is solved in 1 ml acetone and diluted with acetone to the desired concentration. 250 μl of the test solution is filled in 25 ml glass test tubes and homogeneously distributed on the inner walls by rotation and tilting on a shaking device (2 h at 30 rpm). With a compound concentration of 900 ppm, an inner surface of 44.7 cm^2 and a homogeneous distribution, a dose of 5 μg/cm^2 is achieved.
# (§7) After the solvent has evaporated, each test tube is filled with 5-10 adult brown dog ticks (Rhipicephalus sanguineus), closed with a perforated lid and incubated in a lying position at room temperature and relative humidity. After 48 hours efficacy is determined. The ticks are patted on the ground of the tubes and are incubated on a heating plate at 45-50° C. for at most 5 minutes. Immotile or uncoordinated moving ticks, which are not able to escape the heat by climbing upwards, are marked as dead or moribund.
# An efficacy of 100% means all ticks are dead or moribund; 0% means no ticks are dead or moribund.
# [3] = tested on: Aedes aegypti strain MONHEIM; experiment: Aedes aegypti test (surface treatment & contact assay); conditions: 24 hours after contact, read-out: efficacy (mortality); for mortality at 20 mg/m2: surface concentration 20 mg/m^2, 30 min exposure
# Protocol: (§8) • Solvent: Aceton+2000 ppm rapeseed oil methyl ester (RME)
# (§9) In order to produce a sufficient, active ingredient containing solution it is necessary to solve the test compound in the solvent-mix (acetone at 2 mg/ml/RME 2000 ppm). This solution is pipetted onto a glazed tile and after evaporation of the acetone, adult mosquitoes of the species Aedes aegypti strain MONHEIM are placed onto the dried surface. The exposure time is 30 minutes.
# (§10) Mortality in percent (%) is determined 24 hours after contact of the insects to the treated surface. 100% mortality means that all tested insects are dead, whereas 0% means that no insect died.
# [4] = tested on: Anopheles funestus strain FUMOZ-R; experiment: Anopheles funestus test (surface treatment & contact assay); conditions: 24 hours after contact, read-out: efficacy (mortality); for mortality at 4 mg/m2: surface concentration 4 mg/m^2, 30 min exposure; for mortality at 20 mg/m2: surface concentration 20 mg/m^2, 30 min exposure
# Protocol: as §8
# as §9, with “Anopheles funestus” for “Aedes aegypti”, “FUMOZ-R (Hunt et al., Med. Vet. Entomol. 2005 September; 19(3): 271-275)” for “MONHEIM”
# as §10
# Ctenocephalides felis [5] = experiment: Ctenocephalides felis in-vitro contact test, adult cat flea; conditions: 5 μg/cm^2, after 48 hours, read-out: efficacy (fleas dead or moribund)
# Protocol: as §6
# as §7, with “cat fleas (Ctenocephalides felis),” for “brown dog ticks (Rhipicephalus sanguineus),”, “fleas” for “ticks”, “fleas,” for “ticks,”
# An efficacy of 100% means all fleas are dead or moribund; 0% means no fleas are dead or moribund.
# [6] = tested on: Musca domestica strain WHO-N; experiment: Musca domestica test (surface treatment & contact assay); conditions: 24 hours after contact, read-out: efficacy (mortality)
# Protocol: as §8
# as §9, with “flies” for “mosquitoes”, “Musca domestica” for “Aedes aegypti”, “WHO-N” for “MONHEIM”
# as §10
# Myzus persicae [7] = experiment: Myzus persicae spray test; conditions: 120 h
# Protocol: as §5
# as §4, with “solvents” for “solvent,”, “and” for “and the concentrate”
# Chinese cabbage (Brassica pekinensis) leaf disks infected with all instars of the green peach aphid (Myzus persicae), are sprayed with a preparation of the active ingredient of the desired concentration.
# as §2
# Nilaparvata lugens = Nilaparvata lugens spray test; conditions: 96 h
# Protocol: as §3
# as §4, with “solvents” for “solvent,”, “and” for “and the concentrate”
# Rice plants (Oryza sativa) are sprayed with a preparation of the active ingredient of the desired concentration and the plants are infested with the brown planthopper (Nilaparvata lugens).
# After 4 days mortality in % is determined. 100% means all planthoppers have been killed and 0% means none of the planthoppers have been killed.
# [8] = surface concentration 4 mg/m^2, 30 min exposure
SMILES,mortality at 100 ppm (Ctenocephalides felis [1]) [%],mortality at 4 ppm (Myzus persicae [2]) [%],mortality at 20 ppm (Myzus persicae [2]) [%],pest or weed control at 0.02 mg (Boophilus microplus) [%],mortality at 500 g/ha (Nezara viridula) [%],mortality at 500 g/ha (Spodoptera frugiperda) [%],mortality at 500 g/ha (Phaedon cochleariae) [%],"efficacy (ticks dead or moribund) (Rhipicephalus sanguineus; 1 μg/cm^2, after 48 hours) [%]","efficacy (ticks dead or moribund) (Rhipicephalus sanguineus; 5 μg/cm^2, after 48 hours) [%]","mortality at 4 mg/m2 [3, 8] [%]",mortality at 20 mg/m2 [3] [%],mortality at 4 mg/m2 [4] [%],mortality at 20 mg/m2 [4] [%],pest or weed control at 5 µg/cm2 (Ctenocephalides felis [5]) [%],"mortality at 20 mg/m2 ([6]; surface concentration 20 mg/m^2, 30 min exposure) [%]",mortality at 500 g/ha (Myzus persicae [7]) [%],mortality at 500 g/ha (Nilaparvata lugens) [%],"mortality at 4 mg/m2 [6, 8] [%]"
COCCN(C(=O)c1cc(Cl)cc(C(F)(F)F)c1)C(C)c1ncnn1-c1ncccn1 (stereo not drawn) [Example I-005],100,100,100,100,90,100,100,80,80,–,–,–,–,–,–,–,–,–
CC(c1ncnn1-c1ncccn1)N(Cc1ncccn1)C(=O)c1cc(Cl)cc(C(F)(F)F)c1 (stereo not drawn) [Example I-010],100,100,100,100,100,100,100,–,–,80 to 100,90 to 100,85 to 100,85 to 100,100,90 to 100,–,–,–
CC(c1ncnn1-c1ncccn1)N(CC1CSC1)C(=O)c1cc(Cl)cc(C(F)(F)F)c1 (stereo not drawn) [Example I-011],100,100,100,95,100,100,100,–,–,–,90 to 100,85 to 100,85 to 100,–,–,100,100,90 to 100
CC(c1ncnn1-c1ncccn1)N(CC1OCCO1)C(=O)c1cc(Cl)cc(C(F)(F)F)c1 (stereo not drawn) [Example I-023],100,100,–,100,–,100,–,–,–,–,–,–,85 to 100,80,–,100,–,–
CC(c1ncnn1-c1ncccn1)N(C(=O)c1cc(Cl)cc(C(F)(F)F)c1)C1CS(=O)(=O)C1 (stereo not drawn) [Example I-025],100,100,100,–,100,–,100,–,–,–,90 to 100,85 to 100,85 to 100,–,–,–,90,–
CCON(C(=O)c1cccc(C(F)(F)F)c1)C(C)c1ncnn1-c1ncccn1 (stereo not drawn) [Example I-029],80,100,–,100,100,–,–,–,80,–,–,–,–,100,–,–,–,–
COCCN(C(=O)c1cc(Cl)cc(S(C)(=O)=O)c1)C(C)c1ncnn1-c1ncccn1 (stereo not drawn) [Example I-031],100,100,–,100,100,–,–,–,–,–,–,–,85 to 100,80,–,100,100,–
CSCCN(C(=O)c1cc(Cl)cc(S(C)(=O)=O)c1)C(C)c1ncnn1-c1ncccn1 (stereo not drawn) [Example I-032],–,100,–,–,100,–,–,–,–,–,–,–,–,100,–,90,100,–
CSCCN(C(=O)c1cc(Cl)cc(Cl)c1)C(C)c1ncnn1-c1ccc(C#N)cn1 (stereo not drawn) [Example I-036],–,100,–,–,90,100,–,–,–,–,–,–,–,100,–,90,–,–
CSCCN(C(=O)c1cc(Cl)cc(S(F)(F)(F)(F)F)c1)C(C)c1ncnn1-c1ccc(C#N)cn1 (stereo not drawn) [Example I-039],–,–,–,–,100,100,–,–,–,–,–,–,–,100,–,100,–,–
CSCCN(C(=O)c1cc(F)cc(C2CC2)c1)C(C)c1ncnn1-c1ccc(C#N)cn1 (stereo not drawn) [Example I-040],–,–,–,–,–,–,–,–,–,–,–,–,–,100,–,100,–,–
CC(c1ncnn1-c1ncccn1)N(CCNS(C)(=O)=O)C(=O)c1cc(Cl)cc(C(F)(F)F)c1 (stereo not drawn) [Example I-041],–,100,–,–,–,100,–,–,–,–,–,–,–,–,–,90,–,–
CCOC(=O)NCCN(C(=O)c1cc(Cl)cc(C(F)(F)F)c1)C(C)c1ncnn1-c1ncccn1 (stereo not drawn) [Example I-042],–,100,–,–,100,100,–,–,–,–,–,–,–,–,–,100,100,–
CC(=O)NCCN(C(=O)c1cc(Cl)cc(C(F)(F)F)c1)C(C)c1ncnn1-c1ncccn1 (stereo not drawn) [Example I-043],–,100,–,–,100,100,–,–,–,–,–,–,–,–,–,100,–,–
